Publication PMC9923724, “Half sandwich-type osmium, ruthenium, iridium and rhodium complexes with bidentate glycosyl heterocyclic ligands induce cytostasis in platinum-resistant ovarian cancer cells and bacteriostasis in Gram-positive multiresistant bacteria” (Frontiers in Chemistry, 2023)

Assays:
[1] = system: L428 Hodgkin lymphoma cells; assay: Cell proliferation on L428 cells (counted in Burker chamber); assay type: cell-based; details: head says SRB, cells counted using a Burker chamber
Protocol: 3 × 10^3 Capan2 cells, 2 × 10^3 Saos cells and 8 × 10^3 L428 were plated to 96 well plates. Cells were treated with the compounds in the concentrations for 48 h. Then for Capan2 and Saos SRB assay was performed, L428 cells were counted using a Burker chamber. Data is represented as average ± SD, from three biological replicates; individual assays were performed in duplicates. Values were normalized for vehicle treated cells, absorbance for vehicle treated cells equals to 1. Normality was checked using the Shapiro-Wilk test. The Saos Os-7 dataset was normalized using the Box-Cox method, other datasets had normal distribution. Each complex was individually assessed for statistical significance using One-way ANOVA test followed by Dunnett’s post hoc test; all values were compared to the values of the lowest concentration. For better visibility the p values are presented in an excel sheet at https://figshare.com/s/2c942a812caea8869a67. Non-linear regression was performed on the Capan2 and Saos datasets.
Cells were seeded in 96 well plates the day before the assay. Cells were treated with the compounds for […]. Cells were counted using a Burker chamber. On each plate wells were designed to contain untreated cells. In calculations the readings for these wells was considered as 1 and all readings were expressed relative to these values.

[2] = system: A2780 ovarian cancer cells; assay: SRB assay (cytostasis, 48 h) on A2780 cells; assay type: cell-based; details: 48 h treatment
Protocol: First, we assessed a set of osmium complexes (similar to Ia [[Kacsir et al., 2022]) in Figure 1] and their sugar-derived ligands, in which the benzoyl protective groups on the carbohydrate moiety were replaced by aliphatic acyl groups of different chain length (straight chain C3-C7–CO). Osmium was selected as a central ion, since osmium complexes had the best biological activity in our previous studies ([Balázs et al., 2022]; [Kacsir et al., 2022]). These compounds were tested on A2780 ovarian cancer cells for toxicity and cytostasis. The therapy of ovarian cancer is centered around platinum compounds ([Brown et al., 2019]; [Sipos et al., 2021]), therefore, it was logical to use a cellular model of ovarian cancer for the initial testing of the compounds. Toxicity was assessed using the MTT assay that measures the activity of mitochondrial complex I. We chose 4 h long treatment as in an MTT assay this time point is suitable to detect rapid, direct toxicity. Cytostasis was assessed after 48 h of treatment using the SRB assay that assesses protein content that corresponds to cell count. The characteristics of the compounds are detailed in Table 2.
3 × 10^3 A2780 cells, were plated to 96 well plates. Cells were treated with the compounds in the concentrations indicated for either 4 h for an MTT assay or for 48 h for an SRB assay. Data is represented as average ± SD, from three biological replicates; individual assays were performed in duplicates. Values were normalized for vehicle treated cells, absorbance for vehicle treated cells equals to 1. […] Except for the Os-6 complex, Two-way ANOVA test was performed and all values were compared with each other (Tukey’s post hoc test). […] Non-linear regression was performed on the data.
3 × 10^3 A2780 cells, 2 × 10^3 ID8 cells and 4 × 10^3 primary fibroblasts were plated to 96 well plates. Cells were treated with the compounds in the concentrations indicated for either 4 h for an MTT assay or for 48 h for an SRB assay. Data is represented as average ± SD, from three biological replicates; individual assays were performed in duplicates. Values were normalized for vehicle treated cells, absorbance for vehicle treated cells equals to 1. Statistical significance was assessed using two-way ANOVA test comparing the free ligand and each complex as a complex-ligand pair. Before the test normality was assessed using the D’Agostino-Pearson test. The ID8 SRB Ir-7+L-7 dataset had lognormal distribution. […] All other datasets had normal distribution. For better visibility the p values are presented in an excel sheet at https://figshare.com/s/2c942a812caea8869a67. Non-linear regression was performed on the A2780 SRB and the ID8 SRB datasets.
The assay was performed similar to ([Kovács et al., 2019]). Cells were seeded in 96 well plates the day before the assay. Cells were treated with the compounds for 48 h. Cells were fixed with 10% trichloroacetic acid (TCA). Fixed cells were washed in distilled water 3 times followed by staining with SRB (0.4 m/V% dissolved in 1% acetic acid) for 10 min. Stained cells were washed in 1% acetic acid 5 times; acetic acid was removed and cells were left to dry. Protein-bound SRB was released by adding 100 µl 10 mM Tris base. Plates were measured in a plate photometer (Thermo Scientific Multiscan GO spectrophotometer, Waltham, MA, United States) at 540 nm. On each plate wells were designed to contain vehicle-treated cells. In calculations the readings for these wells was considered as 1 and all readings were expressed relative to these values.
Statistical analysis was performed using 8.0.1 version of Graphpad Prism. Values were tested for normal distribution using the D’Agostino and Pearson normality test. When necessary, values were log normalized or were normalized using the Box-Cox normalization method ([Box and Cox, 1964]) as indicated in the figure captions. […]

SMILES	L428 maximal inhibition (cell count) [1]	A2780 SRB IC50 [2]	A2780 SRB Max. (maximal inhibition) [2]	IC50 [2]
Cc1c(C)c(C)[c-](C)c1C.F[P-](F)(F)(F)(F)F.O=C(OCC1OC(n2cc(-c3ccc4ccccc4n3)nn2)C(OC(=O)c2ccccc2)C(OC(=O)c2ccccc2)C1OC(=O)c1ccccc1)c1ccccc1.[Cl][Ir+2] (mixture of isomers) [Ir-7]	>90%	submicromolar or low micromolar	>90%	0.891 µM
Cc1ccc(C(C)C)cc1.F[P-](F)(F)(F)(F)F.O=C(OCC1OC(n2cc(-c3ccc4ccccc4n3)nn2)C(OC(=O)c2ccccc2)C(OC(=O)c2ccccc2)C1OC(=O)c1ccccc1)c1ccccc1.[Cl][Os+] (mixture of isomers) [Os-7]	>90%	submicromolar or low micromolar	>90%	0.578 µM
Cc1ccc(C(C)C)cc1.F[P-](F)(F)(F)(F)F.O=C(OCC1OC(n2cc(-c3ccc4ccccc4n3)nn2)C(OC(=O)c2ccccc2)C(OC(=O)c2ccccc2)C1OC(=O)c1ccccc1)c1ccccc1.[Cl][Ru+] (mixture of isomers) [Ru-7]	52.73%	submicromolar or low micromolar	>90%	0.847 µM
